Data on 12 compounds can be found in article PMC4583543, “Development and Validation of a Novel Leishmania donovani Screening Cascade for High-Throughput Screening Using a Novel Axenic Assay with High Predictivity of Leishmanicidal Intracellular Activity” (PLoS Neglected Tropical Diseases, 2015).

Like-named read-outs stand apart in the source and are kept apart here.

Data set [1] has as its system LdBOB axenic amastigote-like cells. The data set is described as follows: Novel (cidal) axenic amastigote assay, BacTiter-Glo read-out. Type of data set: cell-based, Leishmania donovani. To be noted: for EC50: Leishmania donovani, read-out: Novel (axenic assay potency, pEC50) (converted); for Novel (axenic assay potency, pEC50): mean (standard deviation), minimum three independent repeats, top concentration 50 μM, pEC50 = -LOG(EC50[M]). The source says:
Leishmania donovani BOB cells (LdBOB) used in this study are a cloned line from strain MHOM/SD/62/1S-CL2 [13]. Cultures were maintained as described previously. Compounds were dispensed into 384-well assay plates by acoustic dispensing (LabCyte ECHO). […] Potencies are reported as pEC50 (-LOG(EC50[M])). All data was processed using IDBS ActivityBase. […] For compounds with low activity and poor definition of the curve top, B was fixed to 100. For the determination of the reference compound panel potency, all experiments were carried out with a minimum of three independent repeats. Test compounds were pre-dispensed into white 384 well plates (Corning). For library screens one compound per well was tested at the indicated final concentration. […] DMSO, zero percent effect control: cells at starting concentration. The zero percent effect control wells are left empty during the course of the assay. […] The assay volume is 25 μl / well. […] Plates were then sealed with clear film and relative luminescence was detected using a plate reader (Victor 3) from Perkin Elmer or PHERAstar FS from BMG LABTECH, with 0.5 s detection time per well).

On the set-up of data set [2]: method as in PMID 197231. To be noted: cited from earlier work.
The next data set concerns THP-1 cells. Description: THP-1 host cell toxicity in the intramacrophage assay. Type of data set: cell-based, human. To be noted: reference compound panel, mean (standard deviation), host cell toxicity; for EC50: Homo sapiens, THP-1, read-out: THP-1 (potency, pEC50) (converted). As to the method:
(§1) Compounds were dispensed into 384-well assay plates by acoustic dispensing (LabCyte ECHO). […] Potencies are reported as pEC50 (-LOG(EC50[M])).
(§2) All data was processed using IDBS ActivityBase. […] Potency plates were normalised to DMSO control (0% effect) and 2μM amphotericin B control (100% effect). […] For compounds with low activity and poor definition of the curve top, B was fixed to 100. For the determination of the reference compound panel potency, all experiments were carried out with a minimum of three independent repeats.
(§3) The assay conditions are described previously. Briefly PMA differentiated THP-1 cells were infected overnight with eGFP expressing LdBOB amastigote-like cells at a multiplicity of infection of 5. Next, any remaining free amastigote-like cells are removed and compounds are added. The microscopy-based read-out is done after a four day compound incubation.

The test system of data set [3] is eGFP expressing LdBOB amastigote-like cells in PMA differentiated THP-1 cells. The data set is described as follows: Intramacrophage (intracellular, INMAC) assay. Type of data set: cell-based, Leishmania donovani. To be noted: for EC50: Leishmania donovani, THP-1, 96 h, read-out: Intramacrophage (potency, pEC50) (converted). As to the method:
as §1, §2, §3

For data set [4] the following is noted: cited from earlier work.
A further data set deals with HepG2 cells. The data set is described as follows: HepG2 assay (mammalian counterscreen, resazurin). Type of data set: cell-based, human. To be noted: reference compound panel, mean (standard deviation), 72 h; for EC50: Homo sapiens, HepG2, read-out: HepG2 (potency, pEC50) (converted). As for the experimental part: Compounds were dispensed into 384-well assay plates by acoustic dispensing (LabCyte ECHO). […] Potencies are reported as pEC50 (-LOG(EC50[M])). All data was processed using IDBS ActivityBase. […] For compounds with low activity and poor definition of the curve top, B was fixed to 100. For the determination of the reference compound panel potency, all experiments were carried out with a minimum of three independent repeats. The assay conditions are described previously.
(Counterscreens check selectivity or assay interference.)

Where [5] appears, read: reference compound panel, mean (standard deviation), minimum three independent repeats, four day incubation.

Consider `CCN(CC)C(=S)SSC(=S)N(CC)CC` [Disulfiram], for which the EC50 in data set [1] was 0.363 µM; in the data set on THP-1 cells, > 34.7 µM; in data set [3] (setting [5]), > 34.7 µM; with HepG2 cells, 45.7 µM. The “activity in words (novel axenic versus intracellular)” value in data set [1] (reference compound panel) is listed as “only active in the novel axenic assay”. Besides, in data set [2], the stability in serum result is listed as “unstable in serum”. In data set [4], the aqueous solubility entry is “poor”.
Turning to `CC(C)Cn1cnc2c(N)nc3ccccc3c21` [Imiquimod], the EC50 in data set [1] was > 50.1 µM; in the data set on THP-1 cells, > 34.7 µM; in data set [3], > 34.7 µM; in the data set on HepG2 cells it was > 50.1 µM.
`CCCCCCCCCCCCCCCCOP(=O)([O-])OCC[N+](C)(C)C` [Miltefosine]: the EC50 in data set [1] is 31.6 µM; with THP-1 cells, > 34.7 µM; in data set [3] (setting [5]) it was 0.794 µM; with HepG2 cells, > 50.1 µM. The “potency difference, intracellular assay relative to novel axenic assay” value in data set [3] (more active in the intracellular assay) is “around ten-fold”.
On to `C[C@@H]1[C@H](O)[C@@H](C)/C=C/C=C/CC/C=C/C=C/C=C/C=C/C(O[C@H]2O[C@H](C)[C@@H](O)[C@H](N)[C@@H]2O)CC2O[C@](O)(CC(O)C(O)CCC(O)CC(O)CC(O)CC(=O)O[C@H]1C)CC(O)C2C(=O)O` (some centres unmarked) [Nystatin], for which the “Novel (axenic assay potency, pEC50)” value in data set [1] (reference compound panel) is recorded as 5.19 (0.21). Besides, the “THP-1 (potency, pEC50)” value in the data set with THP-1 cells is listed as < 4.46. Besides, the “Intramacrophage (potency, pEC50)” value in data set [3] (setting [5]) was 4.68 (0.5). The “HepG2 (potency, pEC50)” value in the data set on HepG2 cells is on record as < 4.3.
On to `NC[C@@H]1O[C@H](O[C@H]2[C@@H](O)[C@H](O[C@@H]3[C@@H](O)[C@H](N)C[C@H](N)[C@H]3O[C@H]3O[C@H](CO)[C@@H](O)[C@H](O)[C@H]3N)O[C@@H]2CO)[C@H](N)[C@@H](O)[C@@H]1O` [Paromomycin], for which the EC50 was > 50.1 µM in data set [1], > 34.7 µM in the data set on THP-1 cells, > 34.7 µM in data set [3] (setting [5]) and > 50.1 µM in the data set with HepG2 cells.
In the case of `CC1=CC(=O)c2ccccc2C1=O` [Menadione], the EC50 in data set [1] is 10.2 µM; in the data set on THP-1 cells it was 33.1 µM; in data set [3] (setting [5]) it was > 34.7 µM; in the data set with HepG2 cells, 3.47 µM.
For `CCN(CC)Cc1cc(Nc2ccnc3cc(Cl)ccc23)ccc1O` [Amodiaquine], the EC50 was > 50.1 µM in data set [1], 29.5 µM in the data set with THP-1 cells, 4.07 µM in data set [3] (setting [5]) and 25.7 µM in the data set on HepG2 cells. Also, the “activity in words (intracellular versus novel axenic)” value in data set [3] (reference compound panel) was “only active in the intracellular assay”.
Consider `OC(c1ccc(Cl)cc1)(c1cncnc1)c1ccccc1Cl` (centres unmarked) [Fenarimol], for which the EC50 in data set [1] is > 50.1 µM; in the data set on THP-1 cells, > 34.7 µM; in data set [3] (setting [5]) it was > 34.7 µM; in the data set with HepG2 cells it was > 50.1 µM.
Turning to `NC(=O)c1cnccn1` [Pyrazinamide], the EC50 in data set [1] is > 50.1 µM; in the data set with THP-1 cells, > 34.7 µM; in data set [3] (setting [5]), > 34.7 µM; in the data set with HepG2 cells it was > 50.1 µM.
Regarding `CC(C)(C)NC(=O)[C@@H]1CN(Cc2cccnc2)CCN1C[C@@H](O)C[C@@H](Cc1ccccc1)C(=O)N[C@H]1c2ccccc2C[C@H]1O` [Indinavir], the EC50 was > 50.1 µM in data set [1], > 34.7 µM in the data set with THP-1 cells, > 34.7 µM in data set [3] (setting [5]) and > 50.1 µM in the data set on HepG2 cells.
Turning to `C=CC(C)(C)c1cc(/C=C/C(=O)c2ccc(O)cc2)c(OC)cc1O` [Licochalcone A], the “Novel (axenic assay potency, pEC50)” value in data set [1] (reference compound panel) is given as 4.67 (0.15). The “THP-1 (potency, pEC50)” value in the data set on THP-1 cells is recorded as 4.46 (0.01). In addition, the “Intramacrophage (potency, pEC50)” value in data set [3] (setting [5]) was 4.65 (0.17). For the same compound, in the data set with HepG2 cells, the “HepG2 (potency, pEC50)” value is reported as 4.44 (0.09).
Turning to `N=C(N)c1ccc(OCCCCCOc2ccc(C(=N)N)cc2)cc1` [Pentamidine], the EC50 in data set [1] was 8.71 µM; in the data set on THP-1 cells, > 34.7 µM; in data set [3] (setting [5]), 15.5 µM; with HepG2 cells it was 2.82 µM.
